# Laboratory results from patent publication US9549921B2, “Heterocyclic compounds and methods of use thereof for the treatment of hepatitis C” (priority 2014, dated 2017).
# pIC50: −log10 of the molar value. Like-named read-outs stand apart in the source and are kept apart here.
# Legend:
# HCV replicon genotype 1a = assay: HCV replicon assay, genotype 1a (cell ELISA for NS3/4A); format: cell-based, hepatitis C virus; conditions: for IC50: Hepatitis C virus, 96 h, read-out: 1a IC50 (nM), HCV genotype 1a replicon cells, 96 hours incubation, NS3/4A ELISA readout, % of DMSO control
# In short: (§1)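 Readout is NS3/4A protein level from an antibody-based cell ELISA, serving as an indirect measure of replicon RNA; IC50 fitted with a four-parameter function relative to DMSO control. Replicon cells, kept under G418 beforehand, were plated with serial compound dilutions minus G418 for 96 hours.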
# HCV replicon genotype 1b = assay: HCV replicon assay, genotype 1b (cell ELISA for NS3/4A); format: cell-based, hepatitis C virus; conditions: for IC50: Hepatitis C virus, 96 h, read-out: 1b IC50 (nM), HCV genotype 1b replicon cells, 96 hours incubation, NS3/4A ELISA readout, % of DMSO control
# In short: as §1
Structure (SMILES),"pIC50 (HCV replicon genotype 1a; read-out: 1a IC50, HCV genotype 1a replicon cells, 96 hours incubation, NS3/4A ELISA readout, % of DMSO control)","pIC50 (HCV replicon genotype 1b; read-out: 1b IC50, HCV genotype 1b replicon cells, 96 hours incubation, NS3/4A ELISA readout, % of DMSO control)",IC50 (HCV replicon genotype 1a),IC50 (HCV replicon genotype 1b)
"CNC(=O)c1c(-c2ccc(F)cc2)oc2cc(N(C)S(C)(=O)=O)c([C@@H]3CCCN(C(=O)C4CC4c4ccccn4)C3)cc12 (some centres unmarked) [Example 78, 2-(4-fluorophenyl)-N-methyl-6-[methyl(methylsulfonyl)amino]-5-{1-[(2-pyridin-2-ylcyclopropyl)carbonyl]piperidin-3-yl}-1-benzofuran-3-carboxamide]",6.61,7.09,–,–
"CNC(=O)c1c(-c2ccc(F)cc2)oc2cc(N(C)S(C)(=O)=O)c([C@H]3CCCN(S(=O)(=O)/C=C/c4ccccc4)C3)cc12 [Example 79, 2-(4-fluorophenyl)-N-methyl-6-[methyl(methylsulfonyl)amino]-5-[(3R)-1-{[(E)-2-phenylethenyl]sulfonyl}piperidin-3-yl]-1-benzofuran-3-carboxamide]",–,–,64.8 nM,33.1 nM
"CNC(=O)c1c(-c2ccc(F)cc2)oc2cc(N(C)S(C)(=O)=O)c([C@H]3CCCN(S(=O)(=O)Cc4ccc(F)cc4)C3)cc12 [Example 80, 5-{(3R)-1-[(4-fluorobenzyl)sulfonyl]piperidin-3-yl}-2-(4-fluorophenyl)-N-methyl-6-[methyl(methylsulfonyl)amino]-1-benzofuran-3-carboxamide]",–,–,3.17 nM,4.5 nM
"CNC(=O)c1c(-c2ccc(F)cc2)oc2cc(N(C)S(C)(=O)=O)c([C@H]3CCCN(S(=O)(=O)Cc4ccccc4F)C3)cc12 [Example 81, 5-{(3R)-1-[(2-fluorobenzyl)sulfonyl]piperidin-3-yl}-2-(4-fluorophenyl)-N-methyl-6-[methyl(methylsulfonyl)amino]-1-benzofuran-3-carboxamide]",–,–,14.1 nM,11.6 nM
"CNC(=O)c1c(-c2ccc(F)cc2)oc2cc(N(C)S(C)(=O)=O)c([C@H]3CCCN(S(=O)(=O)Cc4cccc(F)c4)C3)cc12 [Example 82, 5-{(3R)-1-[(3-fluorobenzyl)sulfonyl]piperidin-3-yl}-2-(4-fluorophenyl)-N-methyl-6-[methyl(methylsulfonyl)amino]-1-benzofuran-3-carboxamide]",–,–,2.2 nM,3.26 nM
"CNC(=O)c1c(-c2ccc(F)cc2)oc2cc(N(C)S(C)(=O)=O)c([C@H]3CCCN(S(=O)(=O)c4cc5ccccc5o4)C3)cc12 [Example 83, 5-[(3R)-1-(1-benzofuran-2-ylsulfonyl)piperidin-3-yl]-2-(4-fluorophenyl)-N-methyl-6-[methyl(methylsulfonyl)amino]-1-benzofuran-3-carboxamide]",–,–,38.2 nM,22.4 nM
"CNC(=O)c1c(-c2ccc(F)cc2)oc2cc(N(C)S(C)(=O)=O)c([C@H]3CCCN(S(=O)(=O)Cc4ccc(F)c(F)c4)C3)cc12 [Example 84, 5-{(3R)-1-[(3,4-difluorobenzyl)sulfonyl]piperidin-3-yl}-2-(4-fluorophenyl)-N-methyl-6-[methyl(methylsulfonyl)amino]-1-benzofuran-3-carboxamide]",–,–,2.77 nM,3.04 nM
"CNC(=O)c1c(-c2ccc(F)cc2)oc2cc(N(C)S(C)(=O)=O)c([C@H]3CCCN(C(=O)c4cc5cc(F)ccc5n4C)C3)cc12 [Example 85, 5-{(3R)-1-[(5-fluoro-1-methyl-1H-indol-2-yl)carbonyl]piperidin-3-yl}-2-(4-fluorophenyl)-N-methyl-6-[methyl(methylsulfonyl)amino]-1-benzofuran-3-carboxamide]",–,–,26 nM,12.5 nM
"CNC(=O)c1c(-c2ccc(F)cc2)oc2cc(N(C)S(C)(=O)=O)c([C@H]3CCCN(C(=O)c4c(C)c5cc(F)ccc5n4C)C3)cc12 [Example 86, 5-{(3R)-1-[(5-fluoro-1,3-dimethyl-1H-indol-2-yl)carbonyl]piperidin-3-yl}-2-(4-fluorophenyl)-N-methyl-6-[methyl(methylsulfonyl)amino]-1-benzofuran-3-carboxamide]",–,–,234 nM,115 nM
"CNC(=O)c1c(-c2ccc(F)cc2)oc2cc(N(C)S(C)(=O)=O)c([C@H]3CCCN(C(=O)c4nc5ccccc5[nH]4)C3)cc12 [Example 87, 5-[(3R)-1-(1H-benzimidazol-2-ylcarbonyl)piperidin-3-yl]-2-(4-fluorophenyl)-N-methyl-6-[methyl(methylsulfonyl)amino]-1-benzofuran-3-carboxamide]",–,–,267 nM,112 nM
"CNC(=O)c1c(-c2ccc(F)cc2)oc2cc(N(C)S(C)(=O)=O)c([C@H]3CCCN(C(=O)c4cc5c(F)cccc5[nH]4)C3)cc12 [Example 88, 5-{(3R)-1-[(4-fluoro-1H-indol-2-yl)carbonyl]piperidin-3-yl}-2-(4-fluorophenyl)-N-methyl-6-[methyl(methylsulfonyl)amino]-1-benzofuran-3-carboxamide]",–,–,70.7 nM,38.7 nM
"CNC(=O)c1c(-c2ccc(F)cc2)oc2cc(N(C)S(C)(=O)=O)c([C@H]3CCCN(C(=O)c4cc5cc(C(F)(F)F)ccc5n4C)C3)cc12 [Example 89, 2-(4-fluorophenyl)-N-methyl-6-[methyl(methylsulfonyl)amino]-5-[(3R)-1-{[1-methyl-5-(trifluoromethyl)-1H-indol-2-yl]carbonyl}piperidin-3-yl]-1-benzofuran-3-carboxamide]",–,–,84.4 nM,45.2 nM
"CNC(=O)c1c(-c2ccc(F)cc2)oc2cc(N(C)S(C)(=O)=O)c([C@H]3CCCN(C(=O)c4cc5cc(F)ccc5[nH]4)C3)cc12 [Example 90, (R)-5-(1-(5-fluoro-1H-indole-2-carbonyl)piperidin-3-yl)-2-(4-fluorophenyl)-N-methyl-6-(N-methylmethylsulfonamido)benzofuran-3-carboxamide]",–,–,41.6 nM,20.7 nM
"CNC(=O)c1c(-c2ccc(F)cc2)oc2cc(N(C)S(C)(=O)=O)c([C@H]3CCCN(C(=O)c4cc5cccc(F)c5o4)C3)cc12 [Example 91, (R)-5-(1-(7-fluorobenzofuran-2-carbonyl)piperidin-3-yl)-2-(4-fluorophenyl)-N-methyl-6-(N-methylmethylsulfonamido)benzofuran-3-carboxamide]",–,–,180 nM,62.6 nM
"CNC(=O)c1c(-c2ccc(F)cc2)oc2cc(N(C)S(C)(=O)=O)c([C@H]3CCCN(C(=O)c4nc5ccc(F)cc5[nH]4)C3)cc12 [Example 92, 5-{(3R)-1-[(6-fluoro-1H-benzimidazol-2-yl)carbonyl]piperidin-3-yl}-2-(4-fluorophenyl)-N-methyl-6-[methyl(methylsulfonyl)amino]-1-benzofuran-3-carboxamide]",–,–,274 nM,97 nM
"CNC(=O)c1c(-c2ccc(F)cc2)oc2cc(N(C)S(C)(=O)=O)c([C@H]3CCCN(C(=O)c4nc5ccc(F)cc5s4)C3)cc12 [Example 93, 5-{(3R)-1-[(6-fluoro-1,3-benzothiazol-2-yl)carbonyl]piperidin-3-yl}-2-(4-fluorophenyl)-N-methyl-6-[methyl(methylsulfonyl)amino]-1-benzofuran-3-carboxamide]",–,–,181 nM,102 nM
"CNC(=O)c1c(-c2ccc(F)cc2)oc2cc(N(C)S(C)(=O)=O)c([C@H]3CCCN(C(=O)[C@@H](NC(=O)OC(C)(C)C)c4ccccc4F)C3)cc12 [Example 94, tert-butyl {(1S)-1-(2-fluorophenyl)-2-[(3R)-3-{2-(4-fluorophenyl)-3-(methylcarbamoyl)-6-[methyl(methylsulfonyl)amino]-1-benzofuran-5-yl}piperidin-1-yl]-2-oxoethyl}carbamate]",–,–,300 nM,168 nM
"CNC(=O)c1c(-c2ccc(F)cc2)oc2cc(N(C)S(C)(=O)=O)c([C@H]3CCCN(C(=O)Cc4ccc5nccnc5c4)C3)cc12 [Example 95, 2-(4-fluorophenyl)-N-methyl-6-[methyl(methylsulfonyl)amino]-5-[(3R)-1-(quinoxalin-6-ylacetyl)piperidin-3-yl]-1-benzofuran-3-carboxamide]",–,–,176 nM,106 nM
"CNC(=O)c1c(-c2ccc(F)cc2)oc2cc(N(C)S(C)(=O)=O)c([C@H]3CCCN(C(=O)c4nn(C)c(=O)c5ccccc45)C3)cc12 [Example 96, 2-(4-fluorophenyl)-N-methyl-6-[methyl(methylsulfonyl)amino]-5-{(3R)-1-[(3-methyl-4-oxo-3,4-dihydrophthalazin-1-yl)carbonyl]piperidin-3-yl}-1-benzofuran-3-carboxamide]",–,–,423 nM,219 nM
"CNC(=O)c1c(-c2ccc(F)cc2)oc2cc(N(C)S(C)(=O)=O)c([C@H]3CCCN(C(=O)c4n[nH]c(=O)c5ccccc45)C3)cc12 [Example 97, 2-(4-fluorophenyl)-N-methyl-6-[methyl(methylsulfonyl)amino]-5-{(3R)-1-[(4-oxo-3,4-dihydrophthalazin-1-yl)carbonyl]piperidin-3-yl}-1-benzofuran-3-carboxamide]",–,–,336 nM,470 nM
"CNC(=O)c1c(-c2ccc(F)cc2)oc2cc(N(C)S(C)(=O)=O)c([C@H]3CCCN(C(=O)C(c4ccccc4)N4CCOCC4)C3)cc12 (stereo partly drawn) [Example 98, 2-(4-fluorophenyl)-N-methyl-6-[methyl(methylsulfonyl)amino]-5-{(3R)-1-[morpholin-4-yl(phenyl)acetyl]piperidin-3-yl}-1-benzofuran-3-carboxamide]",–,–,241 nM,112 nM
"CNC(=O)c1c(-c2ccc(F)cc2)oc2cc(N(C)S(C)(=O)=O)c([C@H]3CCCN(C(=O)c4n[nH]c5cc(Br)ccc45)C3)cc12 [Example 99, 5-{(3R)-1-[(6-bromo-1H-indazol-3-yl)carbonyl]piperidin-3-yl}-2-(4-fluorophenyl)-N-methyl-6-[methyl(methylsulfonyl)amino]-1-benzofuran-3-carboxamide]",–,–,137 nM,66.7 nM
